{"source": "patent US11197856B2", "about": "“Bicyclic compounds and methods for their use in treating autism” (priority 2013, dated 2021)", "key": {"[1]": {"test_system": "fmr1-knockout mice and wild-type mice", "experiment": "Marble burying", "assay_type": "in vivo", "method": "Mice were placed in an enclosed environment with a bed of wood shavings. Ten (10) marbles were introduced into the environment, and the number of marbles buried was determined by visual observation (median±interquartile range (IQR))."}, "[2]": {"test_system": "hippocampal LTP in MeCP2 deficient mice", "experiment": "Hippocampal long-term potentiation (fEPSP slope) in MeCP2 deficient mice", "assay_type": "in vivo", "settings": "MeCP2 deficient mice at 9 weeks; vs saline", "description": "MeCP2 deficient mice have been previously reported to suffer from functional and ultrastructural synaptic dysfunction, significant impairment of hippocampus-dependent memory and hippocampal long-term potentiation (LTP) (Moretti et al. The Journal of Neuroscience. 2006. 26(1):319-327). To test the effects of the cG-2-AllylP treatment on synaptic function in the RTT model we compare hippocampal LTP in both vehicle and cG-2-AllylP-treated animals at 9 weeks of age. To do so, we measure the slope of the fEPSP as a % of baseline potential in neurons in slices of hippocampus from MeCP2 deficient mice treated with either saline or cG-2-AllylP."}, "layer 5 cortical neurons": {"test_system": "layer 5 cortical neurons", "experiment": "Intracellular whole-cell recordings of spontaneous EPSCs in acute brain slices", "assay_type": "in vivo, mice", "settings": "MeCP2-/y animals; 20 mg/kg daily; vs vehicle"}, "[3]": {"test_system": "layer 5 pyramidal neurons in sections of motor cortex", "experiment": "Golgi staining of cortical dendritic spines", "assay_type": "in vivo, mice", "settings": "knockout neurons; P28", "method": "Samples (<1 cm) from P28 mice are fixed in 10% formalin and 3% potassium bichromate for 24 hours. Tissue is then transferred into 2% silver nitrate for 2 days in the dark at room temperature. Sections from these samples are then cut at 30 μm thickness into distilled water. Sections corresponding to motor cortex are mounted onto slides, air dried for 10 minutes, and then dehydrated through sequential rinses of 93% alcohol, 100% alcohol, and xylene, and then sealed with a coverslip. Images re acquired at 10× (whole cell) and 100× (spine imaging) using a Zeiss Pascal 3 Exciter confocal microscope.\nWe use Golgi staining to label neurons sparsely and distinctly, and applied high-resolution confocal imaging to measure dendritic spine density and morphology in the labelled cells, restricting analysis to layer 5 pyramidal neurons in sections of motor cortex from critical period mice (P28).\nWhile low-magnification imaging clearly delineates the extent of the dendrites of the pyramidal cells we use higher magnifications to count synaptic contacts and determine the morphological class of each spine. We classify spines as either large and bulbous (“mushroom”, M), short and stubby (“stubby”, S), short and thin (“thin”, T) or filopodia (F)."}, "[4]": {"test_system": "heterozygous Shank3-deficient mice", "experiment": "Shank3-deficient mice: male-female social interactions and ultrasonic vocalizations", "assay_type": "in vivo", "settings": "Shank3-deficient groups; 15 or 60 mg/kg oral b.i.d 14 days; vs placebo", "method": "1 to 3 month old wild-type and heterozygous Shank3-deficient mice are divided into 4 treatment groups: placebo treated wild-type, placebo treated Shank3-deficient group and two Shank3-deficient cG-2-AllylP treated groups. The animals are given placebo (water) or cG-2-AllylP formulated in water administered orally, b.i.d for 14 days. cG-2-AllylP is administered at two doses: 15 or 60 mg/kg.\nBehavioral assessments are made at several time points, and include analysis of social interactions and ultrasonic social communication, in line with the methodology described by Bozdagi et al. Briefly, male-female social interactions in each treatment group are evaluated. The subject males are group-housed and individually tested in clean cages with clean litter. Each testing session lasts 5 min. […] Videos from the male subjects are subsequently scored by an investigator uninformed of the subject's genotype and treatment group on measures of nose-to-nose sniffing, nose-to-anogenital sniffing and sniffing of other body regions, using Noldus Observer software (Noldus Information Technology, Leesburg, Va., USA). Ultrasonic vocalizations are identified manually by two highly trained investigators blinded to genotype/treatment group information, and summary statistics are calculated using the Avisoft package. […] Data are analysed using an unpaired Student's t-test."}, "p-ERK1/2": {"test_system": "p-ERK1/2", "experiment": "Phospho-flow cytometry of lymphocytes, p-ERK1/2", "assay_type": "in vivo", "settings": "fmr1-knockout mice; 15, 30, 60 and 240 minutes after a single treatment", "description": "Lymphocytes are isolated from five fmr1-knockout and five wild-type titter mate control mice, per study time after injection with cG-2-AllylP. Lymphocytes are examined for activation of two signaling effectors, p-ERK1/2 and p-Akt using phosphorylation status as a measure of activation by flow cytometry (phospho-flow).\n1. Flow cytometry total and phosphorylated ERK in lymphocytes"}, "BCL2": {"test_system": "BCL2", "experiment": "PBBI in rats: BCL2 Western blotting", "assay_type": "in vivo", "settings": "24 hr, 3 and 7 days after PBBI", "description": "The unilateral frontal PBBI model, which mimics the ballistic dynamics of a bullet or fragment wound to the head (Williams, 2003; Williams, 2006), was induced by stereotactic insertion of a custom probe through the right frontal cortex. A temporary cavity was formed by the rapid inflation/deflation (i.e. <40 msec) of an elastic balloon attached to the end of the probe. The PBBI apparatus consisted of a computer-controlled hydraulic pressure generator (Mitre Corp McLean, Va.), a PBBI probe and a stereotaxic frame equipped with a custom-designed probe holder as previously described (Lu, 2009; Williams, 2003). The injury severity was determined by the size of the balloon under control of the computerized hydraulic pressure. The balloon diameter calibrated to 0.63 cm expansion represented 10% of the total rat brain volume thus expressing a 10% PBBI. All surgeries were done under anaesthesia. Groups tested: Sham+vehicle, PBBI+vehicle, PBBI+cG-2-AllylP (30 mg/kg by oral gavage, 30 min post-injury, and again once daily until endpoint). AU procedures were approved by the Institutional Animal Care and Use Committee of WRAIR. Animals were housed in a facility accredited by the AAALAC. […]\nSamples were analysed at 24 hr and 3 and 7 days post-injury for all groups (sham+vehicle, PBBI+vehicle, PBBI+cG-2-AllylP). […]"}}}
{"smiles": "C=CC[C@]12CCCN1C(=O)CNC2=O", "note": "[cG-2-AllylP, (8aS)-Allyl-hexahydropyrrolo[1,2-a]pyrazine-1,4-dione]", "values": [{"measurement": "marbles buried", "setting": "[1]; fmr1-knockout animals", "value": 80, "unit": "%"}, {"measurement": "number of marbles buried (median)", "setting": "[1]; fmr1-knockout animals", "value": "8 of 10 marbles"}, {"measurement": "marbles buried", "setting": "[1]; wild-type mice", "value": 100, "unit": "%"}, {"measurement": "number of marbles buried", "setting": "[1]; wild-type mice", "value": "10 out of 10"}, {"measurement": "slope of fEPSP (hippocampal LTP)", "setting": "[2]", "value": "increases the slope of fESPS"}, {"measurement": "EPSC amplitude", "setting": "layer 5 cortical neurons", "value": "significantly larger in amplitude"}, {"measurement": "density of spines per unit branch", "setting": "[3]", "value": "largely ameliorated in the knockout with treatment"}, {"measurement": "cumulative duration of total social sniffing", "setting": "[4]", "value": "significant increase in the cumulative duration of total social sniffing"}, {"measurement": "number of ultrasonic vocalizations", "setting": "[4]", "value": "increased number of ultrasonic vocalizations"}, {"measurement": "mean fluorescent intensity (MFI) for p-ERK1/2", "setting": "p-ERK1/2", "value": "decreases at all time points"}, {"measurement": "BCL2 levels", "setting": "BCL2", "value": "did not significantly alter"}]}
